Values quoted from earlier work in US20050272755A1, “Method for treating abnormal cell growth” (priority 2004, published 2005).
Where a name gives a salt, the structure may show the parent alone. Read-outs that look alike come from different tables or passages of the source.

Assays:
[1] = system: metastatic colorectal cancer
[2] = system: colorectal cancer; settings: colorectal cancer patients resistant to 5-FU

SMILES	median survival ([1]; European trial) [months]	median survival ([1]; US trial) [months]	grade 3-4 toxicity: diarrhea ([1]; capecitabine treatment arms) [%]	grade 3-4 toxicity: hand-foot syndrome ([1]; capecitabine treatment arms) [%]	Overall response rate ([1]; first of the two phase III studies ('respectively'; Europe N=602 named first), capecitabine 2500 mg/m^2/day for 14 days every 3 weeks) [%]	Overall response rate ([1]; second of the two phase III studies ('respectively'; US N=605 named second)) [%]	survival compared with 5-FU/FA best infusional regimens [2]	survival compared with supportive care only [2]
CCCCCOC(=O)Nc1nc(=O)n([C@@H]2O[C@H](C)[C@@H](O)[C@H]2O)cc1F [capecitabine, 5′-deoxy-5-fluoro-N-[(pentyloxy)-carbonyl]-cytidine]	13.3	12.5	14	17	21	21	–	–
CCc1c2c(nc3ccc(OC(=O)N4CCC(N5CCCCC5)CC4)cc13)-c1cc3c(c(=O)n1C2)COC(=O)[C@]3(O)CC [CPT-11, irinotecan hydrochloride trihydrate]	–	–	–	–	–	–	longer survival	longer survival
